Experimental data reported in patent publication US12435061B2 (priority 2020, dated 2025).
Counter-ions that a name gives are not always drawn. Like-named read-outs stand apart in the source and are kept apart here.

Molecular target: hTRPV3 (Homo sapiens (Human), UniProt Q8NET8)
Test: Whole-cell patch clamp, hTRPV3 Phase 1 / Phase 2 currents
Format: cell-based
Method in brief: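 Currents are activated by 20 μM 2-APB or by perfusate at 28 °C or warmer, in Ringer's solution, and quantified at ±80 mV.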

[1] = Phase 1 current, human TRPV3, read-out: hTRPV3 (nM) Phase 1
[2] = Phase 1 current, inward, whole-cell patch clamp, read-out: hTRPV3 Patch P1 Inwd
[3] = Phase 2 current, inward, whole-cell patch clamp, read-out: hTRPV3 Patch P2 Inwd
[4] = Phase 1 current, read-out: hTRPV3 (nM) (Phase 1)
[5] = Phase 2 current, read-out: hTRPV3 (nM) (Phase 2)

Sequence of hTRPV3 (Q8NET8 whole entry): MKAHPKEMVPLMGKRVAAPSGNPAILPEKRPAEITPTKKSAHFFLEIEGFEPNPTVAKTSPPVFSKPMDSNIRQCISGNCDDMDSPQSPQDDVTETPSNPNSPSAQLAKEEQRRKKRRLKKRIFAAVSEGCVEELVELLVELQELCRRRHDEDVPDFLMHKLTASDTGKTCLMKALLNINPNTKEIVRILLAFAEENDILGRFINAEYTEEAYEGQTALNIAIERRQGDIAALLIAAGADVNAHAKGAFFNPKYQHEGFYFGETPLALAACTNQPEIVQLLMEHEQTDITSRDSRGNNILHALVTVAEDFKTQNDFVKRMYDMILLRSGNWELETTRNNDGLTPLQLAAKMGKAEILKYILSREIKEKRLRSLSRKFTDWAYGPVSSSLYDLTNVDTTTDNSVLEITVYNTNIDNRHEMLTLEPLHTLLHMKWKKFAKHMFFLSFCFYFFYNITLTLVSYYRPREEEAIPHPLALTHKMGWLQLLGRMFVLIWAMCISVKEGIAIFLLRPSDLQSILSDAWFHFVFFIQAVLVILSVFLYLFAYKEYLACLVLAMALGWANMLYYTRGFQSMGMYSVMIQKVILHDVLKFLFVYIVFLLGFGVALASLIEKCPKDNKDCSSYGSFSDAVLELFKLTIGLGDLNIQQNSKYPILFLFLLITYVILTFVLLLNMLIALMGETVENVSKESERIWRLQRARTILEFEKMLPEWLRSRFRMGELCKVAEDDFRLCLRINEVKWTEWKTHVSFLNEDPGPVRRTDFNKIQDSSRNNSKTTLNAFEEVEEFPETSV

Compound | IC50 [2] | IC50 [3] | IC50 [4] | other results
O=C(c1ncccc1F)N1CCC(c2ccc(-c3ccccc3C3CC3)cc2CO)C1 (stereo not shown) [Compound 2-74] | 10 to 100 nM | 10 to 100 nM |  | IC50 [1]: 90.5 nM; IC50 (Phase 2 current, human TRPV3, read-out: hTRPV3 (nM) Phase 2): 54.6 nM
CC(C)c1ccccc1Oc1ccc(C2CCN(C(=O)c3ncccc3Cl)C2)c(C(=O)O)c1 (stereo not shown) [Compound 2-25, 2-(1-(3-chloropicolinoyl)pyrrolidin-3-yl)-5-(2-isopropylphenoxy)benzoic acid] | > 1000 nM |  |  | IC50 [1]: > 3200 nM
O=C1C(Oc2ccc3ccccc3n2)CCN1c1ccc(-c2ccccc2)cc1 (stereo not shown) [Compound 1-95, 1-(biphenyl-4-yl)-3-(quinolin-2-yloxy)pyrrolidin-2-one] | > 1000 nM |  | > 3200 nM | 
O=C(c1ncccc1Cl)N1CCC(c2ccc(C(O)c3ccc(F)cc3)cc2CO)C1 (stereo not shown) [Compound 2-4, (3-chloropyridin-2-yl)(3-(4-((4-fluorophenyl)(hydroxy)methyl)-2-(hydroxymethyl)phenyl)pyrrolidin-1-yl)methanone] | > 1000 nM |  |  | IC50 [1]: > 3200 nM
Cc1ccc(O[C@H]2CCN(c3ccc(-c4ccccc4CN(C)C(=O)OC(C)(C)C)nc3CO)C2)nc1 [Compound 1-258, (S)-tert-butyl 2-(6-(hydroxymethyl)-5-(3-(5-methylpyridin-2-yloxy)pyrrolidin-1-yl)pyridin-2-yl)benzyl (methyl)carbamate] | 100 to 1000 nM |  | 276 nM | 
Cc1ccccc1-c1ccc(N2CC[C@H](Oc3ncccc3C)C2)c(CCO)c1 [Compound 1-198, (S)-2-(2′-methyl-4-(3-(3-methylpyridin-2-yloxy)pyrrolidin-1-yl)biphenyl-3-yl)ethanol] | 100 to 1000 nM |  | 184 nM | 
CCc1ccccc1Oc1ccc(N2CC[C@H](Oc3ccc(C#N)cn3)C2)c(CCO)c1 [Compound 1-361] | 100 to 1000 nM |  | 117 nM | 
OCc1ccc(-c2ccc(N3CC[C@H](Oc4ccc(C(F)(F)F)cn4)C3)c(CO)c2)cc1 [Compound 1-261, (S)-(4-(3-(5-(trifluoromethyl)pyridin-2-yloxy)pyrrolidin-1-yl)biphenyl-3,4′-diyl)dimethanol] | 100 to 1000 nM |  | 604 nM | 
NC(=O)c1cc(-c2ccccc2)cnc1N1CC[C@@H](Oc2ncccc2Cl)C1 [Compound 1-90, (R)-2-(3-(3-chloropyridin-2-yloxy)pyrrolidin-1-yl)-5-phenylnicotinamide] | > 1000 nM | > 1000 nM | ~3000 nM | IC50 [5]: 1600 nM
COc1cc(-c2ccccc2Cl)ccc1N1CC[C@@H](Oc2ccc(C(F)(F)F)cn2)C1 [Compound 1-112, (R)-2-(1-(2′-chloro-3-methoxybiphenyl-4-yl)pyrrolidin-3-yloxy)-5-(trifluoromethyl)pyridine] | > 1000 nM |  | ~2900 nM | hTRPV3 (nM) (Phase 2) (Phase 2 current): Incomplete Block
OCC(O)c1cc(-c2ccccc2)ccc1N1CC[C@H](Oc2ccc(C(F)(F)F)cn2)C1 (stereo partly drawn) [Compound 1-148, 1-(4-((S)-3-(5-(trifluoromethyl)pyridin-2-yloxy)pyrrolidin-1-yl)biphenyl-3-yl)ethane-1,2-diol] | 100 to 1000 nM | 100 to 1000 nM | 550 nM | IC50 [5]: 699 nM
O=C(NCc1ccccc1)c1ccccc1N1CC[C@H](Oc2ccc(C(F)(F)F)cn2)C1 [Compound 1-51, (S)—N-benzyl-2-(3-(5-(trifluoromethyl)pyridin-2-yloxy)pyrrolidin-1-yl)benzamide] |  | > 1000 nM |  | 
Cc1ccc(O[C@H]2CCN(c3ccc(-c4ccccc4C#N)nc3CO)C2)nc1 [Compound 1-190, (S)-2-(6-(hydroxymethyl)-5-(3-(5-methylpyridin-2-yloxy)pyrrolidin-1-yl)pyridin-2-yl)benzonitrile] | > 1000 nM | > 1000 nM | > 3200 nM | IC50 [5]: > 3200 nM
O=C(c1cccc(Cl)c1)c1ccc(N2CC[C@H](Oc3ncccc3Cl)C2)c(CCO)c1 [Compound 1-328, (S)-(3-chlorophenyl)(4-(3-(3-chloropyridin-2-yloxy)pyrrolidin-1-yl)-3-(2-hydroxyethyl)phenyl)methanone] | 100 to 1000 nM |  | 615 nM | 
CCc1ccccc1C(O)c1ccc(N2CC[C@H](Nc3ncccc3Cl)C2)c(CCO)c1 (stereo partly drawn) [Compound 1-385, 2-(2-((S)-3-(3-chloropyridin-2-ylamino)pyrrolidin-1-yl)-5-((2-ethylphenyl)(hydroxy)methyl)phenyl)ethanol] | > 1000 nM |  | > 3200 nM | 
NC(=O)c1cc(-c2ccccc2Cl)ccc1N1CCC(Oc2ccc3ccccc3n2)C1=O (stereo not shown) [Compound 1-114, 2′-chloro-4-(2-oxo-3-(quinolin-2-yloxy)pyrrolidin-1-yl)biphenyl-3-carboxamide] | > 1000 nM | > 1000 nM | ~3900 nM | IC50 [5]: ~3150 nM
5-(2-isopropylphenoxy)-2-(1-(pyrazine-2-carbonyl)pyrrolidin-3-yl)benzamide [Compound 2-103] | > 1000 nM |  |  | IC50 [1]: ~5250 nM
Cc1ccccc1-c1ccc(N2CC[C@H](Oc3ccc(F)cn3)C2)c(CO)n1 [Compound 1-207, (S)-(3-(3-(5-fluoropyridin-2-yloxy)pyrrolidin-1-yl)-6-o-tolylpyridin-2-yl)methanol] | 100 to 1000 nM |  | 283 nM | 

Compound | IC50 [2] | IC50 [3] | IC50 [4] | other results
OCCc1cc(C(O)c2ccc(Cl)cc2)ccc1N1CC[C@H](Oc2ncccc2Cl)C1 (stereo partly drawn) [Compound 1-292, 2-(5-((4-chlorophenyl)(hydroxy)methyl)-2-((S)-3-(3-chloropyridin-2-yloxy)pyrrolidin-1-yl)phenyl)ethanol] | > 1000 nM | > 1000 nM | ~4900 nM | IC50 [5]: ~5100 nM
Cc1ccc(O[C@H]2CCN(c3ccc(-c4ccccn4)nc3CO)C2)nc1 [Compound 1-244, (S)-(5-(3-(5-methylpyridin-2-yloxy)pyrrolidin-1-yl)-2, 2′-bipyridin-6-yl)methanol] | > 1000 nM |  | 4650 nM | 
Cc1cncc(C(=O)N2CCC(c3ccc(-c4ccccc4C4CC4)cc3CO)C2)n1 (stereo not shown) [Compound 2-109] | 10 to 100 nM |  |  | IC50 [1]: 18.2 nM
CCc1ccccc1Oc1ccc(N2CC[C@H](Oc3ncccc3Cl)C2)c(C#N)c1 [Compound 1-308] | > 1000 nM |  | > 3200 nM | 
CCc1ccccc1C(=O)c1ccc(C2CCN(C(=O)c3ncccc3Cl)C2)c(CO)c1 (stereo not shown) [Compound 2-15, (4-(1-(3-chloropicolinoyl)pyrrolidin-3-yl)-3-(hydroxymethyl)phenyl)(2-ethylphenyl)methanone] | > 1000 nM |  |  | IC50 [1]: > 3200 nM
CC(C)c1ccccc1Oc1ccc(N2CC[C@H](Oc3ncccc3F)C2)c(CCO)c1 [Compound 1-331, (S)-2-(2-(3-(3-fluoropyridin-2-yloxy)pyrrolidin-1-yl)-5-(2-isopropylphenoxy)phenyl)ethanol] | 10 to 100 nM |  | 28 nM | 
OCc1nc(-c2ccccc2)ccc1N1CC[C@H](Oc2nc(C(F)(F)F)cs2)C1 [Compound 1-396, (S)-(6-phenyl-3-(3-(4-(trifluoromethyl)thiazol-2-yloxy)pyrrolidin-1-yl)pyridin-2-yl)methanol] | > 1000 nM | > 1000 nM | 1130 nM | IC50 [5]: 2900 nM
Cc1ccccc1-c1ccc(N2CC[C@H](Oc3ccc(C(F)(F)F)cn3)C2)c(CCCO)c1 [Compound 1-176, (S)-3-(2′-methyl-4-(3-(5-(trifluoromethyl)pyridin-2-yloxy)pyrrolidin-1-yl)biphenyl-3-yl)propan-1-ol] | > 1000 nM | > 1000 nM | > 3200 nM | IC50 [5]: 2550 nM
NCc1cc(-c2ccccc2Cl)ccc1N1CC[C@H](Oc2ncccc2Cl)C1 [Compound 1-122, (S)-(2′-chloro-4-(3-(3-chloropyridin-2-yloxy)pyrrolidin-1-yl)biphenyl-3-yl)methanamine hydrochloride] | > 1000 nM | > 1000 nM | > 3200 nM | IC50 [5]: < 3200 nM
OCc1cc(-c2ccccc2)ccc1N1CC[C@H](Oc2ccc(C(F)(F)F)nn2)C1 [Compound 1-397, (S)-(4-(3-(6-(trifluoromethyl)pyridazin-3-yloxy)pyrrolidin-1-yl)biphenyl-3-yl)methanol] | > 1000 nM | > 1000 nM | 2740 nM | IC50 [5]: 1370 nM
COC(C)c1ccccc1Oc1ccc(N2CC[C@H](Oc3ccc(C)cn3)C2)c(CCO)c1 (stereo partly drawn) [Compound 1-355, 2-(5-(2-(1-methoxyethyl)phenoxy)-2-((S)-3-(5-methylpyridin-2-yloxy)pyrrolidin-1-yl)phenyl)ethanol] | 100 to 1000 nM |  | 173 nM | 
Nc1cc(-c2ccccc2Cl)ccc1N1CC[C@@H](Oc2ccc(C(F)(F)F)cn2)C1 [Compound 1-116] |  |  |  | hTRPV3 (nM) (Phase 1) (Phase 1 current): Agonist/ Antagonist (Phase 1) Agonist/ Antagonist (Phase 2); hTRPV3 (nM) (Phase 2) (Phase 2 current): Agonist/ Antagonist (Phase 1) Agonist/ Antagonist (Phase 2)
CCc1ccccc1S(=O)(=O)c1ccc(N2CC[C@H](Oc3ncccc3Cl)C2)c(CCO)c1 [Compound 1-342] |  | > 1000 nM |  | 
Cc1ccc(C(=O)c2ccc(C3CCN(C(=O)c4ncccc4Cl)C3)c(CO)c2)cc1 (stereo not shown) [Compound 2-7] | > 1000 nM |  |  | IC50 [1]: > 3200 nM
OCc1cc(Oc2ccccc2F)ccc1N1CC[C@H](Oc2ccccn2)C1 [Compound 1-333] | 100 to 1000 nM | 100 to 1000 nM | 207 nM | IC50 [5]: 111 nM
OCCc1cc(C(O)c2cccc(Cl)c2)ccc1N1CC[C@H](Nc2ccc(F)cn2)C1 (stereo partly drawn) [Compound 1-392, 2-(5-((3-chlorophenyl)(hydroxy)methyl)-2-((S)-3-(5-fluoropyridin-2-ylamino)pyrrolidin-1-yl)phenyl)ethanol] | > 1000 nM |  | > 3200 nM | 
CC(C)c1ccccc1Oc1ccc(C2CCN(Cc3ccc(Cl)cn3)C2)c(CO)c1 (stereo not shown) [Compound 2-91, (2-(1-((5-chloropyridin-2-yl)methyl)pyrrolidin-3-yl)-5-(2-isopropylphenoxy)phenyl)methanol] | 100 to 1000 nM |  |  | IC50 [1]: 325 nM
